Experimental data taken from PubChem BioAssay (NCI).
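Tested at 5 concentrations; 48 h exposure; 96-well plates; endpoints linearly interpolated, else capped at highest concentration. TGI denotes the concentration required for complete inhibition of growth.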

Columns and labels:
Test in all cases: NCI-60 cell line screen, 48 h
SK-MEL-28 melanoma = tested on: SK-MEL-28 melanoma
KM12 colon = tested on: KM12 colon
EKVX NSCLC = tested on: EKVX NSCLC
TK-10 renal = tested on: TK-10 renal
786-0 renal = tested on: 786-0 renal
SW-620 colon = tested on: SW-620 colon
RPMI-8226 leukemia = tested on: RPMI-8226 leukemia
OVCAR-8 ovarian = tested on: OVCAR-8 ovarian
M14 melanoma = tested on: M14 melanoma
A549 NSCLC = tested on: A549 NSCLC
HOP-62 NSCLC = tested on: HOP-62 NSCLC
OVCAR-4 ovarian = tested on: OVCAR-4 ovarian
CAKI-1 renal = tested on: CAKI-1 renal
HOP-92 NSCLC = tested on: HOP-92 NSCLC
U251 CNS = tested on: U251 CNS
HL-60(TB) leukemia = tested on: HL-60(TB) leukemia
SF-268 CNS = tested on: SF-268 CNS
MDA-MB-231 breast = tested on: MDA-MB-231 breast
HS 578T breast = tested on: HS 578T breast
HCT-116 colon = tested on: HCT-116 colon
SK-MEL-5 melanoma = tested on: SK-MEL-5 melanoma
MDA-N = tested on: MDA-N
OVCAR-3 ovarian = tested on: OVCAR-3 ovarian
BT-549 breast = tested on: BT-549 breast
NCI-H23 lung = tested on: NCI-H23 lung
RXF 393 renal = tested on: RXF 393 renal
PC-3 prostate = tested on: PC-3 prostate
SF-295 CNS = tested on: SF-295 CNS
IGROV1 ovarian = tested on: IGROV1 ovarian
NCI-H522 lung = tested on: NCI-H522 lung
NCI-H226 lung = tested on: NCI-H226 lung
UACC-62 melanoma = tested on: UACC-62 melanoma
NCI/ADR-RES ovarian = tested on: NCI/ADR-RES ovarian
CCRF-CEM leukemia = tested on: CCRF-CEM leukemia
A498 renal = tested on: A498 renal
HCT-15 colon = tested on: HCT-15 colon
LOX IMVI melanoma = tested on: LOX IMVI melanoma
SNB-19 CNS = tested on: SNB-19 CNS
T-47D breast = tested on: T-47D breast
ACHN renal = tested on: ACHN renal
HCC-2998 colon = tested on: HCC-2998 colon
NCI-H460 lung = tested on: NCI-H460 lung
MOLT-4 leukemia = tested on: MOLT-4 leukemia
SN12C renal = tested on: SN12C renal
MCF7 breast = tested on: MCF7 breast
SK-OV-3 ovarian = tested on: SK-OV-3 ovarian
UO-31 renal = tested on: UO-31 renal
SNB-75 CNS = tested on: SNB-75 CNS
HT29 colon = tested on: HT29 colon
UACC-257 melanoma = tested on: UACC-257 melanoma
MALME-3M melanoma = tested on: MALME-3M melanoma
SF-539 CNS = tested on: SF-539 CNS
MDA-MB-435 = tested on: MDA-MB-435
OVCAR-5 ovarian = tested on: OVCAR-5 ovarian
SK-MEL-2 melanoma = tested on: SK-MEL-2 melanoma
SR leukemia = tested on: SR leukemia
COLO 205 colon = tested on: COLO 205 colon
K-562 leukemia = tested on: K-562 leukemia

Measured: TGI

Cc1ccc2nc(NC(=O)C(=O)C3C(=O)NC(=S)NC3=O)sc2c1
not listed: SR leukemia | COLO 205 colon | K-562 leukemia
> 100 µM: all other assays above

CCc1n[nH]c(=O)n1NC(=O)CCCC(=O)O
not listed: SK-MEL-28 melanoma | HL-60(TB) leukemia | SNB-75 CNS
> 100 µM: all other assays above
